Earlier results, collected in patent US20210195917A1, “COMPOSITIONS AND RELATED METHODS FOR AGRICULTURE” (priority 2017, published 2021).

Assays:
bees = details: in vivo
target bacterial strains = details: against its target bacterial strains
[1] = system: gram-negative and gram-positive bacteria as well as fungi

COP(=S)(OC)Oc1ccc([N+](=O)[O-])c(C)c1 [fenitrothion]
toxicity to bees (bees): toxic to bees

nisin
concentration showing antimicrobial activity (target bacterial strains): single-digit nanomolar

botrycidin AJ1316
antifungal activities (fungi): antifungal activities

B1: NCR335: cationic NCR peptide of Medicago truncatula, SEQ ID NO: 65 (peptide, listed as Medicago truncatula)
chain: MQIGKNMVETPKLDYVIIFFFLYFFFRQMIILRLNTTFRPLNFKMLRFWGQNRNIMKHRGQKVHFSLILSDCKTNKDCPKLRRANVRCRKSYCVPI
antimicrobial activities [1]: effective
